From patent publication US7205343B2, “Stabilized bioactive preparations and method of use” (priority 1997, dated 2007)

Tests used:
[1] = Surfactant adsorption/spreading at the air/water interface; format: physicochemical
Excerpt: Stabilized dispersions formed according to the present invention provide for enhanced surfactant spreading at the pulmonary air/water interface. In this regard, the equilibrium surface tension of dimyristoylphosphatidylcholine is ca. 22 mN/m. […] The slow adsorption for liposomes is due to the slow molecular diffusion of DMPC through the water phase. […] This rapid spreading and reduction of surface tension is indicative of what would occur upon contacting the perforated microstructures with a wetted pulmonary membrane.

[2] = Plasma insulin pharmacokinetics after LDI or IM administration (radioimmunoassay); format: in vivo; conditions: fasting rabbits
serum glucose = assay: Serum glucose levels after LDI or IM insulin administration; format: in vivo; conditions: fasting rabbits
Experimental: In the case of LDI administration, rabbits were anesthetized, intubated, placed on a respirator, and their lungs were instilled with ca. 4.5 ml/kg of perflubron. […] Control animals were injected IM with a similar dose of insulin (Humulin R).

Streptococcus pneumoniae = assay: Acute pneumonia model, survival after antibiotic treatment; format: in vivo, Male Wistar rats; conditions: rats inoculated intratracheally with 10^9 cfu S. pneumoniae; 10 mg ampicillin intramuscular one day after inoculation
Excerpt: Male Wistar rats […] were inoculated intratracheally with 10^9 colony forming units of Streptococcus pneumoniae. The model is an acute pneumonia model with 100% of untreated control animals dying within 4 days of inoculation.

[3] = set-up: species or system rats; conditions: Wistar, rat, in vivo
Experimental: Ampicillin concentrations in lung tissue and serum were measured for the two treatment groups in Example XV by a bioassay method. In this method, 60 μl of lung tissue homogenate, or serum obtained from the rats at various points after dosing is placed on a sterile disk. The desk is them placed on an agar plate covered with S. pneumoniae and incubated for 24 hr. […] The no-growth zones were quantitated, and concentrations of antibiotic were calculated based on a standard curve.

[4] = Gentamicin biodistribution in lung lobes by immunoassay; format: in vivo, New Zealand white rabbits; conditions: rabbits; 5 mg/kg; one hour post-administration
Excerpt: Individual lobes of the lungs were collected and analyzed quantitatively for gentamicin by an immunoassay method. […] Excellent biodistribution across the lung lobes was observed following either IM or LDI administration.

Molecule: CCCCCCCCCCCCCC(=O)OC[C@H](COP(=O)([O-])OCC[N+](C)(C)C)OC(=O)CCCCCCCCCCCCC [DMPC, dimyristoylphosphatidylcholine]
- equilibrium surface tension [1]: ca. 22 mN/m

Molecule: Human Insulin
- Cmax ([2]; IM, Humulin R, dose similar to 0.86 IU/kg, plasma insulin): 110.5 μU/ml
- AUC ([2]; IM, Humulin R, plasma insulin): 20770 μU min/ml
- Tmax ([2]; IM, Humulin R, plasma insulin): 1 h
- AUC ([2]; LDI (4.5 ml/kg perflubron), Example XI formulation, 0.86 IU/kg): 11100 μU min/ml
- Cmax ([2]; LDI (4.5 ml/kg perflubron), Example XI formulation, 0.86 IU/kg, plasma insulin): 210.4 μU/ml
- Serum glucose level (serum glucose; IM Humulin R, 0 min): 184.2 mg/dL
- Serum glucose level (serum glucose; IM Humulin R, 5 min): 253.6 mg/dL
- Serum glucose level (serum glucose; IM Humulin R, 10 min): 256.0 mg/dL
- Serum glucose level (serum glucose; IM Humulin R, 15 min): 216.8 mg/dL
- Serum glucose level (serum glucose; IM Humulin R, 30 min): 168.2 mg/dL
- Serum glucose level (serum glucose; IM Humulin R, 60 min): 82.0 mg/dL
- Serum glucose level (serum glucose; IM Humulin R, 90 min): 48.2 mg/dL
- Serum glucose level (serum glucose; IM Humulin R, 120 min): 18.0 mg/dL
- Serum glucose level (serum glucose; IM Humulin R, 150 min): 29.4 mg/dL
- Serum glucose level (serum glucose; IM Humulin R, 180 min): 28.8 mg/dL
- Serum glucose level (serum glucose; IM Humulin R, 240 min): 29.4 mg/dL
- Serum glucose level (serum glucose; IM Humulin R, 360 min): 115.8 mg/dL
- Serum glucose level (serum glucose; LDI Example XI formulation in perflubron, 0.86 IU/kg, 0 min): 175.7 mg/dL
- Serum glucose level (serum glucose; LDI Example XI formulation in perflubron, 0.86 IU/kg, 5 min): 218.8 mg/dL
- Serum glucose level (serum glucose; LDI Example XI formulation in perflubron, 0.86 IU/kg, 10 min): 211.7 mg/dL
- Serum glucose level (serum glucose; LDI Example XI formulation in perflubron, 0.86 IU/kg, 15 min): 198.2 mg/dL
- Serum glucose level (serum glucose; LDI Example XI formulation in perflubron, 0.86 IU/kg, 30 min): 143.3 mg/dL
- Serum glucose level (serum glucose; LDI Example XI formulation in perflubron, 0.86 IU/kg, 60 min): 83.2 mg/dL
- Serum glucose level (serum glucose; LDI Example XI formulation in perflubron, 0.86 IU/kg, 90 min): 38.2 mg/dL
- Serum glucose level (serum glucose; LDI Example XI formulation in perflubron, 0.86 IU/kg, 120 min): 31.2 mg/dL
- Serum glucose level (serum glucose; LDI Example XI formulation in perflubron, 0.86 IU/kg, 150 min): 31.7 mg/dL
- Serum glucose level (serum glucose; LDI Example XI formulation in perflubron, 0.86 IU/kg, 180 min): 33.4 mg/dL
- Serum glucose level (serum glucose; LDI Example XI formulation in perflubron, 0.86 IU/kg, 240 min): 49.2 mg/dL

Molecule: CC1(C)S[C@@H]2[C@H](NC(=O)[C@H](N)c3ccccc3)C(=O)N2[C@H]1C(=O)O [Ampicillin]
- animals surviving to 10 days (Streptococcus pneumoniae): 27%
- local lung concentrations with LDI delivery relative to IM [3]: 250 times higher
- persistence of local lung concentrations with LDI delivery [3]: persisted for several days
- persistence of serum levels following LDI administration [3]: at least 4 hours
- serum ampicillin levels following IM administration ([3]; 2 h): undetectable

Molecule: gentamicin
- lung gentamicin concentrations following LDI relative to IM [4]: ca. 2 orders of magnitude higher
